The values below come from paper PMC11393339, “Structure and mechanism of a phosphotransferase system glucose transporter” (Nature Communications, 2024).

The target in test [1] is T1, IICB^Glc (Escherichia coli, UniProt P69786).
T1 construct: gene ptsG; full-length wild type with decahistidine tag; overexpressed in E. coli BW25113 delta-arcB delta-ptsG; homodimer; purified in DDM (nanoDSF) or in MSP1E3D1/POPC nanodiscs (cryo-EM, IIB domain not resolved)
As to the kind of experiment: nanoDSF thermal shift (Tycho NT.[…]). The format is binding. To be noted: 10 mM ligand, 4 µM protein, 20 mM HEPES-NaOH pH 8.0, 150 mM NaCl, 5 mM β-ME, 0.02% DDM. A general note: DSF heats the sample and reads unfolding from a dye or from intrinsic fluorescence.

The target in test [2] is T1, IICB^Glc. As to the kind of experiment: nanoDSF thermal shift (Tycho NT.[…]). To be noted: 10 mM ligand, 4 µM protein, 20 mM HEPES-NaOH pH 8.0, 150 mM NaCl, 5 mM β-ME, 0.02% DDM. The format is binding. This is another data set of the same source.

T1 sequence (P69786 whole entry, the tested form may be a part): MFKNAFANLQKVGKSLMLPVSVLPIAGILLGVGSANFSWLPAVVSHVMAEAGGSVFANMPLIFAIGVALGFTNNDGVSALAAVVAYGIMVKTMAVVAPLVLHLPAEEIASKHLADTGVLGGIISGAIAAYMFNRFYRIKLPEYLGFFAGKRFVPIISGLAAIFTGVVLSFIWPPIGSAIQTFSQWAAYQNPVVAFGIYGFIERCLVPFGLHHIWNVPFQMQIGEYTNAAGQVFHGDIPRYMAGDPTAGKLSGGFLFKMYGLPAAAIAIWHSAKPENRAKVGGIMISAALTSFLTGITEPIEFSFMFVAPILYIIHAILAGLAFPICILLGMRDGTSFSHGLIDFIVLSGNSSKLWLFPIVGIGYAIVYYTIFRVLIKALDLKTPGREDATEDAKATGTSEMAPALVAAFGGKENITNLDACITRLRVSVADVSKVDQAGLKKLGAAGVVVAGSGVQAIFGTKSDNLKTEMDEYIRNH

As for `COC1O[C@H](CO)[C@@H](O)[C@H](O)[C@H]1O` (stereo partly shown) [1-O-methyl-glucose], on IICB^Glc [1], the ΔTi was 1-deoxy-glucose and 1-O-methyl-glucose bound best.

Regarding `OC[C@H]1OC[C@H](O)[C@@H](O)[C@@H]1O` [1-deoxy-glucose], the ΔTi at IICB^Glc [1] was 1-deoxy-glucose and 1-O-methyl-glucose bound best.

Take `OC[C@H]1OC(O)[C@H](O)[C@@H](O)[C@@H]1O` (stereo partly drawn) [D-glucose]: the ΔTi result at IICB^Glc [2] is “~ almost 10 °C”. Consider `OC[C@H]1O[C@H](O[C@H]2[C@H](O)[C@@H](O)C(O)O[C@@H]2CO)[C@H](O)[C@@H](O)[C@@H]1O` (stereo partly drawn) [D-maltose], for which, at IICB^Glc [1], the ΔTi result is listed as “induced a slight stabilization of IICB^Glc”.
